Laboratory results from US20090264481A1, “Compounds, Compositions and Methods Comprising Oxadiazole Derivatives” (Institute for OneWorld Health, priority 2008, published 2009).

Target: T1, CFTR channel (Homo sapiens, UniProt P13569)
T1 construct: results in the phosphorylation and opening of CFTR anion channels; host or cells: human colonic T84 cells
Assay: T84 assay (FLIPR membrane potential, forskolin/IBMX-stimulated CFTR channel activity)
Type: cell-based
Details: Human colonic T84 cells; 10 μM forskolin + 100 μM IBMX; average of at least 2 runs unless marked n = 1
Protocol: (§1) For example, Human colonic T84 cells can be acquired from the European Collection of Cell Cultures (ECACC) and grown in standard culture conditions as described by the supplier. On the day before assay 25,000 T84 cells per well are plated into standard black walled, clear bottom 384-well assay plates in standard growth medium consisting of DMEM:F12 with 10% FBS and incubated overnight. On the day of the assay the plates are washed using a standard assay buffer (HBSS with 10 mM Hepes) and incubated for 15 minutes in serum free cell culture medium before the addition of a commercially available membrane potential sensitive fluorescent dye (FLIPR Red membrane potential dye, Molecular Devices Corporation). T84 cells are incubated with the FLIPR Red membrane potential dye for 45 minutes in the presence and absence of test compound before being transferred to a commercially available fluorescence imaging plate reader (FLIPR384, Molecular Devices Corporation). Fluorescence levels are monitored continuously every second for 150 seconds; after an initial 10 second baseline, CFTR channel activity is stimulated through the addition of 10 μM forskolin in the presence of 100 μM of the phosphodiesterase inhibitor iso-butyl-methylxanthine (IBMX). Addition of the forskolin leads to the activation of intracellular adenylyl cylase 1, elevating cAMP levels and results in the phosphorylation and opening of CFTR anion channels. CFTR channel opening causes chloride ion efflux and subsequent depolarization of the cells, which is measured by an increase in fluorescence. CFTR inhibitor compounds prevent cell depolarization and the associated increase in fluorescence.
as §1, with “Human colonic” for “For example, Human colonic”, “T84 cells are acquired from” for “T84 cells can be acquired from”, “(ECACC) and are grown in” for “(ECACC) and grown in”

T1 sequence (P13569 whole entry): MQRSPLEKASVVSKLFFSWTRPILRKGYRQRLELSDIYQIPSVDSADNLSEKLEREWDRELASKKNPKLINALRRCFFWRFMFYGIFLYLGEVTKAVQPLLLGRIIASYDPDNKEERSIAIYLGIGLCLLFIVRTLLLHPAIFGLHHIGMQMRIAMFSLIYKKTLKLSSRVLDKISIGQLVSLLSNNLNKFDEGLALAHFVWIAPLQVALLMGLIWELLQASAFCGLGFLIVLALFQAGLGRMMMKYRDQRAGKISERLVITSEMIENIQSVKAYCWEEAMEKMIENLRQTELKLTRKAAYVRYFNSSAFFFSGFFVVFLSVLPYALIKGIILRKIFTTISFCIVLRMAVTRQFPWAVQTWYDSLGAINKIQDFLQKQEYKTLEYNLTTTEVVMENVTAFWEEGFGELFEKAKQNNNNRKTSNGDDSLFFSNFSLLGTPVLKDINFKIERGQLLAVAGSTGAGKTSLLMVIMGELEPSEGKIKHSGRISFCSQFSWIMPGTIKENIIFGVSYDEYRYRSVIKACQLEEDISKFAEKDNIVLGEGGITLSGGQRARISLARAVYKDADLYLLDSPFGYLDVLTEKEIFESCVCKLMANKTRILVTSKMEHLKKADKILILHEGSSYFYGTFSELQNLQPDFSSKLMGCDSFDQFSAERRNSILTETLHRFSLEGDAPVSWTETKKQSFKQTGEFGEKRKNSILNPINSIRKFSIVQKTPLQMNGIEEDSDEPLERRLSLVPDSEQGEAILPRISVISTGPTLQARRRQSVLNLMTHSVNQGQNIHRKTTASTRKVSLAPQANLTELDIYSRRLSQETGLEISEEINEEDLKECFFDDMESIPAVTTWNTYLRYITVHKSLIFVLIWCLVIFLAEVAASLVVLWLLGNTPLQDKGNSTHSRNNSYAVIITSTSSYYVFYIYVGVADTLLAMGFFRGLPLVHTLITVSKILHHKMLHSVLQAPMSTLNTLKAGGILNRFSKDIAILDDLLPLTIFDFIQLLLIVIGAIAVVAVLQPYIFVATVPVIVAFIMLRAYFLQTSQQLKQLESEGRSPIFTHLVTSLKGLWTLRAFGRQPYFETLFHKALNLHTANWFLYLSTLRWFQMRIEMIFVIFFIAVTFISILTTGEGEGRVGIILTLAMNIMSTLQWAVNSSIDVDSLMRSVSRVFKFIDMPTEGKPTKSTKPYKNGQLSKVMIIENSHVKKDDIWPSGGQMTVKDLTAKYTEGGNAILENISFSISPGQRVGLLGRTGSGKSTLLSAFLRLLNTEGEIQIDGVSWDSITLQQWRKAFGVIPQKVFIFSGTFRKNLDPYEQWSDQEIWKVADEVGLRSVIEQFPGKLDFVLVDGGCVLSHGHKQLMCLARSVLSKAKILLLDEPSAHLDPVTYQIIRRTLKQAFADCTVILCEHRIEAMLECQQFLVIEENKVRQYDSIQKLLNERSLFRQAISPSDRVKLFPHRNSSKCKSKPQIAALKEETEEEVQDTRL

Row | IC50 [µM] | Structure (SMILES)
1 | 3.89 | Oc1c(Br)cc(-c2noc(C(O)(Cc3ccccc3)Cc3ccccc3)n2)cc1Br [Compound 1, 2,6-dibromo-4-(5-(2-hydroxy-1,3-diphenylpropan-2-yl)-1,2,4-oxadiazol-3-yl)phenol]
2 | 5.04 | Oc1c(Br)cc(-c2noc(C(O)(c3cccc(F)c3)c3cccc(F)c3)n2)cc1Br [Compound 2, 4-(5-(bis(3-fluorophenyl)(hydroxy)methyl)-1,2,4-oxadiazol-3-yl)-2,6-dibromophenol]
3 | 5.47 | COc1cccc(C(O)(c2cccc(OC)c2)c2nc(-c3cc(Br)c(O)c(Br)c3)no2)c1 [Compound 3, 2,6-dibromo-4-(5-(hydroxybis(3-methoxyphenyl)methyl)-1,2,4-oxadiazol-3-yl)phenol]
4 | 5.63 | Oc1c(Br)cc(-c2noc(C(O)(c3ccc(Cl)cc3)c3ccc(Cl)cc3)n2)cc1Br [Compound 4, 4-(5-(bis(4-chlorophenyl)(hydroxy)methyl)-1,2,4-oxadiazol-3-yl)-2,6-dibromophenol]
5 | 5.85 | Oc1c(Br)cc(-c2noc(C(O)(c3ccccc3)c3ccccc3)n2)cc1Br [Compound 5, 2,6-dibromo-4-(5-(hydroxydiphenylmethyl)-1,2,4-oxadiazol-3-yl)phenol]
6 | 18.8 | CC(C)(C)c1ccc(C(O)(c2ccc(C(C)(C)C)cc2)c2nc(-c3cc(Br)c(O)c(Br)c3)no2)cc1 [Compound 6, 4-(5-(bis(4-tert-butylphenyl)(hydroxy)methyl)-1,2,4-oxadiazol-3-yl)-2,6-dibromophenol]
7 | 18.7 | Oc1c(Br)cc(-c2noc(C(O)(c3ccc4ccccc4c3)c3ccc4ccccc4c3)n2)cc1Br [Compound 7, 2,6-dibromo-4-(5-(hydroxydinaphthalen-2-ylmethyl)-1,2,4-oxadiazol-3-yl)phenol]
8 | 11.4 | Oc1c(Br)cc(-c2noc(C(O)(c3cccc(Cl)c3)c3cccc(Cl)c3)n2)cc1Br [Compound 8, 4-(5-(bis(3-chlorophenyl)(hydroxy)methyl)-1,2,4-oxadiazol-3-yl)-2,6-dibromophenol]
9 | 9.65 | COc1cccc(C(O)(c2cccc(OC)c2)c2nc(-c3cc(Cl)c(O)c(Cl)c3)no2)c1 [Compound 9, 2,6-dichloro-4-(5-(hydroxybis(3-methoxyphenyl)methyl)-1,2,4-oxadiazol-3-yl)phenol]
10 | 6.94 | Oc1c(Cl)cc(-c2noc(C(O)(c3ccccc3)c3ccccc3)n2)cc1Cl [Compound 10, 2,6-dichloro-4-(5-(hydroxydiphenylmethyl)-1,2,4-oxadiazol-3-yl)phenol]
11 | 11.1 | Oc1c(Cl)cc(-c2noc(C(O)(c3ccc(Cl)cc3)c3ccc(Cl)cc3)n2)cc1Cl [Compound 11, 4-(5-(bis(4-chlorophenyl)(hydroxy)methyl)-1,2,4-oxadiazol-3-yl)-2,6-dichlorophenol]
12 | 16.2 | CC#CC(O)(C#CC)c1nc(-c2cc(Br)c(O)c(Br)c2)no1 [Compound 12, 2,6-dibromo-4-(5-(4-hydroxyhepta-2,5-diyn-4-yl)-1,2,4-oxadiazol-3-yl)phenol]
